Experimental data from US12178838B2, “Synthetic neuromodulatory peptides” (Lactocore, Inc., priority 2019, dated 2024).
Where “and” joins values, the source holds several entries; their conditions need not be identical. Equal entries are not always repeated. Where two headings read alike, the source gives them in different places. No end group written: not given here.

Experiments:
[1] = system: zebrafish (Danio rerio); assay: Zebrafish behavioral tests taken together (open field, light/dark box, shoaling); type: in vivo; settings: ip; for basic behavioral parameters in open field, light/dark box and shoaling tests: FLPY 1 and 10 mg/kg, DKTE 10 mg/kg, WDQV 1 mg/kg
Protocol: (§1) The tested substances were injected into the zebrafish intraperitoneally (ip) using an insulin syringe (0.5 ml, 30 g) 10 minutes before the test. The saline solution (0.9% NaCl) was used as a solvent. Anesthesia and immobilization of the animals were achieved by placing them in water at a temperature of 10° C. Control group fish received intraperitoneal injections of an equivalent volume of solvent, also after going through a pre-cooling procedure.
(§2) The open field test was performed as described in Maximino et al., 2013. A video recording (background shooting) was started 20-30 seconds before the zebrafish were placed in the test aquarium. The experimental zebrafish was placed in an open field (“OF”) aquarium using a net. The recording was being conducted for five minutes. The test was carried out using EthoVision XT software package (Noldus). The software registered the distance covered by the animal, its speed, the number of visits to the three conventional zones of the aquarium: “bottom,” “center,” and […] (lower, middle, and upper thirds of the aquarium, respectively), the time spent in these zones, and the latency of a visit to the middle and to the surface of the aquarium.
(§3) The shoaling behavior test was performed as described in Parker et al., 2014. (Parker et al. (2014) The utility of zebrafish to study the mechanisms by which ethanol affects social behavior and anxiety during early brain development. Prog. Neuro-Psychopharmacology Biol. Psychiatry. 94-100). The video recording began simultaneously with placing the zebrafish in the set-up and recorded for 5 minutes. The videos were processed using RealTimer (OpenScience Ltd., Moskow, Russia). During the processing of the records, the residence time and the number of visits to the three conventional zones of the aquarium wall (near the “shoal” in the middle of the aquarium, and near the opposite side; all three were equal in size) were recorded.
(§4) The light/dark box (LDB) test was performed as described in Maximino et al., 2011. The zebrafish was placed in a light compartment of an LDB using a net, the camera was switched on simultaneously, and the behavior of the zebrafish was recorded for 5 minutes. The video was processed using RealTimer (OpenScience). During the processing of records, the residence time and the number of visits to the light and dark compartments of the test setup were recorded, as well as the latent period of visiting both compartments.

[2] = system: zebrafish (Danio rerio); assay: Light/dark box test in zebrafish; type: in vivo; settings: ip
Protocol: as §1
(§5) A base, back, and side walls of the aquarium were made of matte black plastic; the front panel (shorter wall) was made of transparent Plexiglas. The setup for the Light/Dark preference test consisted of three main parts: a launch compartment, a light compartment made of white plastic, and a dark compartment made of black plastic. The bright lighting in these tests was provided by a lamp on a stand (LED lamp PL, 11 W, light flux≈600 Lm, about 500 Lx directly above the water surface), which was attached to the upper part of the aquarium.
as §4

[3] = system: zebrafish (Danio rerio); assay: Open Field test in zebrafish; type: in vivo; settings: ip; for average distance covered / track length (locomotor activity): diazepam 1.25, 5, 10, fluvoxamine 5, 10, ACZ-10 0.6, BCM-7 5, FQSE 1 and 10, DKTE 1, WDQV 10 mg/kg; for time spent at the surface of the aquarium: fluvoxamine 5 and 10 mg/kg, FQSE 1 mg/kg
Protocol: as §1, §5, §2

[4] = system: FQSE (SEQ ID NO:10)-specific binding sites in the rat cortex; assay: Radioligand analysis with [3H] FQSE on rat cortex membranes
Protocol: After decapitation, the tissues were immediately frozen in liquid nitrogen and stored in a low-temperature refrigerator at −80° C. On the day of the experiment, brain tissue (cortex, about 300 mg) was homogenized in a Teflon-glass Potter homogenizer 1:25 W:V in the buffer (50 mM Tris-HCl, pH 7.4). The homogenate was centrifuged at 40,000 g for 20 min. The obtained precipitate was homogenized in a buffer (50 mM Tris-HCl; pH=7.4) and centrifuged again at 40,000 g for 20 min. A similar procedure was performed again. The precipitate was resuspended in 15 ml of the same buffer and used for the radioligand analysis.
The incubation mixture (final volume 0.5 ml) contained 50 μl […]
At the end of the incubation, the samples were filtered through Ge/C glass fiber filters (Whatman) previously moistened with 0.3% polyethyleneimine for 2 hours at room temperature. Each tube was washed twice with cold buffer, then the filters were washed twice with the same volume of buffer.
The filters were air-dried and transferred to scintillation vials. Filters were poured with 5 ml of toluene-based scintillation liquid (4 g PPO, 0.2 g POPOP per liter of toluene).
To construct the curves of the radioactive ligand's displacement each concentration of the test substance was taken in 3 replications. […]

[5] = system: zebrafish (Danio rerio); assay: Shoaling behavior test in zebrafish; type: in vivo; settings: ip; for time spent in the compartment near the shoal: ACZ-10 0.6 mg/kg
Protocol: as §1
A Plexiglas container with a removable partition (shown in FIG. 4) was used as a setup for investigating the shoaling behavior of zebrafish. A shoal of 5 adult Danio rerio specimens was placed into in the small compartment; and the test fish was placed in a large compartment. Diffused lighting in this installation was provided by the usual lighting of the room (about 200 Lx).
as §3

[6] = system: Sprague Dawley rats; assay: Forced swim test in rats, intranasal FQSE; type: in vivo; settings: FQSE 0.5 mg/kg i.n.; ketamine 10 mg/kg IP
Protocol: The five doses of FQSE (SEQ ID NO:10) (0.01, 0.1, 0.5, 1 and 3 mg/kg, CS, Menlo Park, CA) were prepared fresh for each test day in sterile saline and administered intranasally (i.n.) 30 minutes prior to testing. Fifteen rats per group per peptide dose were tested with the exception that there were twenty rats in the vehicle (0) group. Each dose was administered in a randomized order across rats. Prior to dosing, the rats were lightly anesthetized (till loss of righting reflex) with isoflurane (2.5%, 0.5 L/min oxygen), placed in the recumbent position, then a thin plastic pipette (Fischer Scientific) inserted into the nares and peptide administered at a volume of 15-20 uL per nares. Individuals performing the behavioral tests were blind to drug treatment.
Rats were first allowed to acclimate to the testing room for 30 minutes while in their home cage. The forced swim tests were conducted using Plexiglas cylinders (10 in width, 18 in height) filled with water maintained at approximately 25° C. On day 1, rats were first habituated (15 minutes) to the forced swim apparatus by being placed into the water facing the cylinder wall. Forced swim tests (5 minutes) occurred the following day. Activity was recorded by digital cameras and analyzed with specialized software (Ethovision XT12).
Statistical significance was set at P<0.05.

[7] = diazepam 1.25 mg/kg, BCM-7 5 mg/kg, DKTE 1 mg/kg, vs control
[8] = FQSE 10 mg/kg, ACZ-10 0.6 mg/kg

Molecule: WDQV: tetrapeptide W, D, Q, V
- basic behavioral parameters in open field, light/dark box and shoaling tests [1]: no significant effects
- behavior in tests other than the light/dark box ([1]; WDQV 10 mg/kg): did not reveal any effect
- time spent in the dark compartment ([2]; FQSE 10 mg/kg, WDQV 10 mg/kg): reduction
- time spent in the light compartment ([2]; diazepam 5 mg/kg, FQSE 10 mg/kg, WDQV 10 mg/kg): increase
- average distance covered / track length (locomotor activity) [3]: no influence

Molecule: O=C(N/N=C/c1ccccc1O)c1ccccc1O [SCS]
- Amount of bound [3H] FQSE after pre-incubation compared to control level [4]: 93.93% and 104.58%

Molecule: C[C@]12CC[C@@H](O)C[C@@H]1CC[C@@H]1[C@@H]2CC[C@]2(C)[C@@H](C(=O)CO)CC[C@@H]12 [THDOC, tetrahydrodeoxycorticosterone; 3α,21-dihydroxy-5α-pregnan-20-one]
- Amount of bound [3H] FQSE after pre-incubation compared to control level [4]: 100.59% and 103.38%

Molecule: DKTE: tetrapeptide D, K, T, E
- latent period of visiting the shoal ([5]; DKTE 1 mg/kg): statistically significant increase
- time spent in the compartment near the shoal [5, 7]: at the level of tendency
- time spent outside the shoaling compartment (near the wall opposite to the shoal) ([5]; diazepam 5 mg/kg, FQSE 10 mg/kg, DKTE 1 mg/kg, vs control): statistically significant increase
- basic behavioral parameters in open field, light/dark box and shoaling tests [1]: did not cause any statistically significant changes
- change in behavior / efficacy in the light/dark box test ([2]; fluvoxamine 5 and 10 mg/kg, DKTE 1 mg/kg): no observed efficacy
- latent period of visiting the bottom of the aquarium ([3]; DKTE 1 mg/kg): increase
- average distance covered / track length (locomotor activity) [3]: did not affect

Molecule: CCCCCCN(CCCCCC)C(=O)Cc1c(-c2ccc(F)cc2)[nH]c2ccccc12 [FGIN-1-27]
- Amount of bound [3H] FQSE after pre-incubation compared to control level [4]: 102.65% and 102.33%

Molecule: YLGYLEQLLR [ACZ-10, L-tyrosyl-L-leucyl-glycyl-L-tyrosyl-L-leucyl-L-alpha-glutamyl-L-glutaminyl-L-leucyl-L-leucyl-L-arginine]
- time spent in the compartment near the shoal [5, 7]: statistically significant decrease
- latent period of leaving the bottom [3, 8]: decreased significantly
- time spent in the upper part of the aquarium [3, 8]: did not affect
- average distance covered / track length (locomotor activity) [3]: did not demonstrate any significant effects
- time spent at the surface of the aquarium ([3]; ACZ-10 0.6 mg/kg): approximately twofold increase

Molecule: Cn1ncnc1COc1nn2c(-c3c(F)cccc3F)nnc2cc1C1CCC1 [MK0343]
- Amount of bound [3H] FQSE after pre-incubation compared to control level [4]: 98.58% and 104.65%

Molecule: CC(C)(C)OC(=O)c1ncn2c1[C@@H]1CCCN1C(=O)c1c(Br)cccc1-2 [Bretanezil]
- Amount of bound [3H] FQSE after pre-incubation compared to control level [4]: 94.79% and 104.51%

Molecule: COCCCC/C(=N\OCCN)c1ccc(C(F)(F)F)cc1 [Fluvoxamine]
- increase of the time spent in the upper part ([3]; FQSE 10 mg/kg, fluvoxamine 5 mg/kg): more than 80%
- average distance covered / track length (locomotor activity) [3]: did not demonstrate any significant effects
- increase of the time spent under light ([3]; fluvoxamine 5 mg/kg): about 6.8 times
- increase of the time spent under light ([3]; fluvoxamine 10 mg/kg): about 7.2 times
- time spent at the surface of the aquarium ([3]; ACZ-10 0.6 mg/kg): statistically significant increase

Molecule: Oc1noc2c1CCNC2 [Gaboxadol]
- Amount of bound [3H] FQSE after pre-incubation compared to control level [4]: 99.31% and 100.25%

Molecule: O=C(c1ccc(F)cc1)C1CCN(CCn2c(=O)[nH]c3ccccc3c2=O)CC1 [Ketanserin]
- IC50 ([4]; 25 min incubation at RT, read-out: IC50 with respect to [3H]-FQSE binding): > 100 µM

Molecule: YPFPGPI [BCM-7, L-tyrosyl-L-prolyl-L-phenylalanyl-L-prolyl-glycyl-L-prolyl-L-isoleucine]
- time spent in the compartment near the shoal [5, 7]: decrease
- time spent outside the shoaling compartment ([5]; diazepam 1.25 mg/kg, BCM-7 5 mg/kg): did not demonstrate a statistically significant effect
- average distance covered / track length (locomotor activity) [3]: slight increase

Molecule: Cn1c2ccc(F)cc2c2c(C(=O)N3CCCC3)cn(-c3ccccc3)c(=O)c21 [SL 651498]
- Amount of bound [3H] FQSE after pre-incubation compared to control level [4]: 101.36% and 106.98%

Molecule: CC1(C)CC(=O)c2c(SCCO)sc(-c3nccs3)c2C1 [TB21007]
- Amount of bound [3H] FQSE after pre-incubation compared to control level [4]: 103.14% and 105.28%

Molecule: CC(=O)[C@H]1CC[C@H]2[C@@H]3CC=C4C[C@@H](O)CC[C@]4(C)[C@H]3CC[C@]12C [Pregnenolone]
- Amount of bound [3H] FQSE after pre-incubation compared to control level [4]: 87% and 81%
- IC50 ([4]; RT, 50 min, read-out: IC50 after different incubation times: 50 min): 36 ± 0.2 µM
- IC50 ([4]; RT, 1 h 30 min, read-out: IC50 after different incubation times: 1 h 30 min): 75 ± 0.3 µM
- IC50 ([4]; RT, 1 h, read-out: IC50 after different incubation times: 1 h): 77 ± 0.2 µM
- IC50 ([4]; read-out: IC50 for the [3H]-FQSE binding sites in rat cortex membranes): ~100 µM

Molecule: CNC1(c2ccccc2Cl)CCCCC1=O (stereo not shown) [Ketamine]
- immobility [6]: 196.4 ± 8.9 s
- mobility [6]: 103.6 ± 8.9 s

Molecule: FLPY: tetrapeptide used as a negative control
- basic behavioral parameters in open field, light/dark box and shoaling tests [1]: neither of the doses of FLPY (SEQ ID NO:36), induced statistically significant changes

Molecule: O=C(O)C1=CCNCC1 [Isoguvacine]
- Amount of bound [3H] FQSE after pre-incubation compared to control level ([4]; 10^−4M, 1 hour preincubation, 25 minutes incubation): 102.56%
- Amount of bound [3H] FQSE after pre-incubation compared to control level ([4]; 10^−5M, 1 hour preincubation, 25 minutes incubation): 104.33%
- IC50 ([4]; Series 5, 25 and 50 minutes at room temperature, read-out: IC50 with respect to [3H]-FQSE binding): > 100 µM

Molecule: CC(=O)[C@H]1CC[C@H]2[C@@H]3CC[C@H]4C[C@H](O)CC[C@]4(C)[C@H]3CC[C@]12C [Allopregnanolone]
- Amount of bound [3H] FQSE after pre-incubation compared to control level [4]: 100.90% and 103.18%
